The values that follow are results of earlier work, collected in US20110015182A1, “NOVEL CARBAMATE AMINO ACID AND PEPTIDE PRODRUGS OF OPIOIDS AND USES THEREOF” (priority 2009, published 2011).

For data set [1] the following is noted: concurrent oral administration with various opioids; Linn and Steinbrook (2007).
The conditions of data set [2]: Norbury et al. (1983).

Each structure is given as a SMILES string.

As to `C[C@H]1CN(C[C@H](Cc2ccccc2)C(=O)NCC(=O)O)CC[C@@]1(C)c1cccc(O)c1` [alvimopan], the “adverse GI effects of opioids (constipation, nausea and vomiting)” value in data set [1] is “markedly reduce”. Take `CCC1(c2cccc(O)c2)CCCCN(C)C1` (centres unmarked) [meptazinol]: the “range of observed oral bioavailabilities” value in data set [2] is 2-20%.
